Test results: patent publication US20100324152A1, “USE OF 1,2-DECANEDIOL FOR SEBUM REDUCTION AND COSMETIC AND/OR DERMATOLOGICAL FORMULATIONS COMPRISING 1,2-DECANEDIOL” (priority 2006, published 2010)

Assays:
[1] = Dropping point of a model sebum containing 1,2-decanediol (AOCS Cc 18-80/ASTM D 3954); assay type: physicochemical; conditions: addition of 20 wt. % 1,2-decanediol to model sebum, versus 1,2-decanediol-free model sebum
Excerpt: To check the extent to which 1,2-decanediol has a sebum-fluidizing property and is therefore capable of reducing the sebum concentration on the skin surface, and in particular in the sebaceous gland follicles, by a physical route, the influence of 1,2-decanediol on the dropping point of a model sebum was first investigated. On the basis of these publications, a model […] was developed which substantially comprises saturated and unsaturated free fatty acids, wax-like substances, triglycerides and cholesterol and, in detail, is composed of the following substances: palmitic acid, oleic acid, stearic acid, squalene, myristyl myristate, cetyl palmitate, tripalmitin, triolein and cholesterol. The exact quantitative composition of the model sebum (contents of the individual substances in per cent by weight; wt. %) can be seen from the following Table 1. [table] To investigate the influence of 1,2-decanediol on the physical properties of the model sebum, 20 wt. % 1,2-decanediol was added to the model sebum. The dropping points of the 1,2-decanediol-free model sebum and the model sebum sample containing 20 wt. % 1,2-decanediol were then determined using the method for dropping point determination according to AOCS Cc 18-80/ASTM D 3954.

P. acnes = conditions: reported in EP 1 598 064 A1; cited from earlier work

reduction of the dropping point of model sebum [1]: 12.7 °C
Structure (SMILES): CCCCCCCCC(O)CO (centres unmarked) [1,2-decanediol]
antibacterial action in the suspension test (P. acnes): as good as no antibacterial action
